According to ChEMBL document CHEMBL1153748 (J Med Chem, 2010):

Assays:
[1] = target: T1, Peroxisome proliferator-activated receptor gamma (Homo sapiens, UniProt P37231); assay type: cell-based, 293T; details: read-out: EC50
T1 sequence (P37231 whole entry): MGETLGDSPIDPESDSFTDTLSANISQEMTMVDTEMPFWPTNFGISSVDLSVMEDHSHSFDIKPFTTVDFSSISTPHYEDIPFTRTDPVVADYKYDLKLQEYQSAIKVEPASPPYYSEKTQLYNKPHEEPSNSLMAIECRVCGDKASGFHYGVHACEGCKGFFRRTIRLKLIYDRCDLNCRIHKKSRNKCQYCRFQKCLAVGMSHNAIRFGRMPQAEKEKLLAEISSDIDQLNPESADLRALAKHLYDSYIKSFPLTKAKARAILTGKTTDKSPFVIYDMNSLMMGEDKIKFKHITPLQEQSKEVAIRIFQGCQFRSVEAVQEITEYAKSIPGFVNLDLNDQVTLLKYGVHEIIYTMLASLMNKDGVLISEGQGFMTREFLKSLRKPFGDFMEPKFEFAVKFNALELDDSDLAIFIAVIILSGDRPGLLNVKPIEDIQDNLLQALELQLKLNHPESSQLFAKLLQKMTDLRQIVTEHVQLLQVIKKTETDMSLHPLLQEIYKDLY

[2] = target: T2, Peroxisome proliferator-activated receptor delta (Homo sapiens, UniProt Q03181)
T2 sequence (Q03181 whole entry): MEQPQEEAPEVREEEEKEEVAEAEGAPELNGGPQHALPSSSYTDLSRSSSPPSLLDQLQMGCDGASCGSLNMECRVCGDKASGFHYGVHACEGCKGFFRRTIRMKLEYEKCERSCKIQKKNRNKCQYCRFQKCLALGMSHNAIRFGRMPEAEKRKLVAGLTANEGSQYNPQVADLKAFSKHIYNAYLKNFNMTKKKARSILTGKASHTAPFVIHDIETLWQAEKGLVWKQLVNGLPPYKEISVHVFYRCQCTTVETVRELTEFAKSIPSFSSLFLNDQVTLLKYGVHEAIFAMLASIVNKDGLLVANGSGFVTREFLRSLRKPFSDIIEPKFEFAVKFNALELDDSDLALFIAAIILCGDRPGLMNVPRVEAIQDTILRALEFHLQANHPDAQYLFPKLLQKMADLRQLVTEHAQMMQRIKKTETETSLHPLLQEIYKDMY

[3] = target: T3, Peroxisome proliferator-activated receptor alpha (Homo sapiens) (UniProt Q07869); assay: Agonist activity at human PPARalpha ligand binding domain expressed in human 293T cells co-transfected with Gal4-DBD by luciferase transactivation assay relative to KRP297; assay type: cell-based
T3 sequence (whole entry): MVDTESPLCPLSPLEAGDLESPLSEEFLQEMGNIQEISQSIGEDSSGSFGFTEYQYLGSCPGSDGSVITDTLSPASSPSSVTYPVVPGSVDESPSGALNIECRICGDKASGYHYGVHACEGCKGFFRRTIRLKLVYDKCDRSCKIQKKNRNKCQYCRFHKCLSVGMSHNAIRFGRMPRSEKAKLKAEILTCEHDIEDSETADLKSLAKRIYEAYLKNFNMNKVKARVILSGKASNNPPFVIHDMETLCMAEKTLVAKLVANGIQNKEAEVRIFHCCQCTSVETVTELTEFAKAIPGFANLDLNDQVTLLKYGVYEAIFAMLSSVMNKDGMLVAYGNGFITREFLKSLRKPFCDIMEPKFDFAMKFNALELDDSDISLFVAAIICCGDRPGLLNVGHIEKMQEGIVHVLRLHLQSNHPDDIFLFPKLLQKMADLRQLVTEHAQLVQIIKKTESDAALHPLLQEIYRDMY

[4] = target: T4, Peroxisome proliferator-activated receptor alpha (Homo sapiens, UniProt Q07869); assay: Agonist activity at human PPARalpha ligand binding domain expressed in human 293T cells co-transfected with Gal4-DBD by luciferase transactivation assay; assay type: cell-based; details: read-out: EC50
T4 sequence (Q07869 whole entry): T3 sequence (whole entry)

[5] = target: Peroxisome proliferator-activated receptor delta (Homo sapiens) (UniProt Q03181); assay: Agonist activity at human PPARdelta by FRET assay
[6] = Oral bioavailability in Balb/c mouse at 10 mg/kg daily; details: in vivo
Mus musculus [7] = assay: Upregulation of UCP3 expression in C57BL/6 mouse at 10 mg/kg, po qd relative to control; assay type: functional
[8] = Cmax in Balb/c mouse at 10 mg/kg, po qd; details: in vivo
[9] = Half life in Balb/c mouse at 10 mg/kg, po qd; details: in vivo
Mus musculus [10] = assay: Upregulation of PDK4 expression in C57BL/6 mouse at 10 mg/kg, po qd relative to control; assay type: functional
[11] = target: T2, Peroxisome proliferator-activated receptor delta; remark: listed apart in the source
[12] = AUC ((0 to 24 hrs)) in Balb/c mouse at 10 mg/kg, po qd; details: plasma

EC50 [1] [nM] | EC50 [2] [nM] | Efficacy [3] [%] | EC50 [4] [nM] | Compound | EC50 [5] [nM] | bioavailability [6] [%] | fold change (FC) (Mus musculus [7]) | Cmax [8] [nM] | half-life [9] [h] | fold change (FC) (Mus musculus [10]) | EC50 [11] [nM] | AUC at 24 h [12] [µM·h]
1560 | 6 | 55 | 1590 | Cc1cc(OCc2nc(-c3ccc(C(=O)N4CCCCC4)cc3)c(-c3ccc(OC(F)(F)F)cc3)s2)ccc1OCC(=O)O |  |  |  |  |  |  |  | 
> 10000 | 4060 | 5 | 4080 | COc1ccc(-c2csc(COc3ccc(OCC(=O)O)c(C)c3)n2)cc1 |  |  |  |  |  |  |  | 
 | 9 |  |  | Cc1cc(OCc2nc(-c3ccc(OC(C)C)cc3)c(-c3cccc(OC(F)(F)F)c3)s2)ccc1OCC(=O)O | 46 | 49 | 1.9 | 2400 | 3.2 | 1.7 | 16 | 20.3
 | 11 |  |  | CCCc1ccc(-c2sc(COc3ccc(OCC(=O)O)c(C)c3)nc2-c2ccc(OC(C)C)cc2)cc1 | 17 |  |  |  |  |  | 13 | 
1310 | 1870 | 37 | 1090 | CCOC(Cc1ccc(OCc2nc(-c3ccc(OC)cc3)c(-c3ccc(C(F)(F)F)cc3)s2)cc1)C(=O)O (stereo not given) |  |  |  |  |  |  |  | 
1200 | 2 | 65 | 690 | Cc1cc(OCc2nc(-c3ccc(C(=O)N(C)C(C)C)cc3)c(-c3ccc(OC(F)(F)F)cc3)s2)ccc1OCC(=O)O |  |  |  |  |  |  |  | 
5660 | > 10000 | 64 | 5350 | COc1ccc(-c2nc(SCCOc3ccc(OCC(=O)O)c(C)c3)sc2-c2ccc(OC)cc2)cc1 |  |  |  |  |  |  |  | 
6890 | > 10000 | 62 | 5250 | COc1ccc(-c2nc(SCCCOc3ccc(OCC(=O)O)c(C)c3)sc2-c2ccc(OC)cc2)cc1 |  |  |  |  |  |  |  | 
> 10000 | 18 | 43 | 1150 | Cc1cc(OCc2nc(-c3ccc(C(=O)N4CCCCC4)cc3)c(-c3ccc(OC(F)(F)F)cc3)o2)ccc1OCC(=O)O |  |  |  |  |  |  |  | 
> 10000 | 3 | 38 | 1990 | Cc1cc(OCc2nc(-c3cnc(N4CCOCC4)nc3)c(-c3ccc(OC(F)(F)F)cc3)s2)ccc1OCC(=O)O |  |  |  |  |  |  |  | 
 | 11 |  |  | Cc1cc(OCc2nc(-c3ccc(OC(C)C)cc3)c(-c3ccc(C(F)(F)F)cc3)s2)ccc1OCC(=O)O | 20 | 70 | 1.7 | 2800 | 3.9 | 1.1 | 16 | 37.3
> 10000 | 20 |  | > 10000 | CCCc1cc(OCc2nc(-c3ccc(OC)cc3)c(-c3ccc(C(F)(F)F)cc3)s2)ccc1OCC(=O)O |  |  |  |  |  |  |  | 
> 10000 | 930 |  | > 10000 | COc1ccc(-c2nc(COc3ccc(OCC(=O)O)cc3)sc2-c2ccc(C(F)(F)F)cc2)cc1 |  |  |  |  |  |  |  | 
> 10000 | 20 |  | > 10000 | COc1ccc(-c2nc(COc3ccc(OCC(=O)O)c(C)c3)sc2-c2ccc(OC(F)(F)F)cc2)cc1 |  |  |  |  |  |  |  | 

The next lines start with the compound.

Compound | EC50 [1] [nM] | EC50 [2] [nM] | Efficacy [3] [%] | EC50 [4] [nM] | EC50 [5] [nM] | bioavailability [6] [%] | fold change (FC) (Mus musculus [7]) | Cmax [8] [nM] | half-life [9] [h] | fold change (FC) (Mus musculus [10]) | EC50 [11] [nM] | AUC at 24 h [12] [µM·h]
Cc1cc(OCc2nc(-c3cnc(N4CCOCC4)nc3)c(-c3ccc(OC(F)(F)F)cc3)o2)ccc1OCC(=O)O | 1030 | 1 | 69 | 410 |  |  |  |  |  |  |  | 
Cc1cc(OCc2nc(-c3ccc(OC(C)C)nc3)c(-c3ccc(OC(F)(F)F)cc3)s2)ccc1OCC(=O)O | > 10000 | 8 |  | > 10000 | 13 | 72 | 2.9 | 4700 | 10.8 | 1.9 | 12 | 62.9
Cc1cc(OCc2nc(-c3ccc(C(=O)N(C)C(C)C)cc3)c(-c3ccc(OC(F)(F)F)cc3)o2)ccc1OCC(=O)O | 600 | 1 | 49 | 700 |  |  |  |  |  |  |  | 
Cc1cc(OCc2nc(-c3cnc(OC(C)C)nc3)c(-c3ccc(OC(F)(F)F)cc3)s2)ccc1OCC(=O)O | > 10000 | 6 |  | > 10000 | 10 | 88 | 1.5 | 3500 | 2.3 | 1.6 | 14 | 20.1
Cc1cc(OCc2nc(-c3cccnc3)c(-c3ccc(-c4ccccc4)cc3)o2)ccc1OCC(=O)O |  | 8 |  |  | 30 | 10 |  | 400 | 4 |  | 6 | 0.814
CCCc1ccc(-c2oc(COc3ccc(OCC(=O)O)c(C)c3)nc2-c2cnc(OC)nc2)cc1 |  | 9 |  |  | 30 | 41 | 2.5 | 2200 | 2.7 | 2 | 10 | 6.42
Cc1cc(OCc2nc(-c3ccc(OC(C)C)cc3)c(-c3ccc(-c4ccccc4)cc3)s2)ccc1OCC(=O)O |  | 9 |  |  | 29 |  | 2.4 |  |  | 1.5 | 10 | 
Cc1cc(OCc2nc(-c3ccc(N4CCOCC4)cc3)c(-c3ccc(-c4ccccc4)cc3)s2)ccc1OCC(=O)O |  | 18 |  |  | 72 | 30 | 2.5 | 2700 | 5.1 | 1.4 | 14 | 31.9
Cc1cc(SCc2sc(-c3ccc(C(F)(F)F)cc3)nc2C)ccc1OCC(=O)O [GW501516] |  |  |  |  |  |  | 3.2 | 3900 | 4.4 | 2.5 |  | 29.8
Cc1cc(OCc2nc(-c3cnc(OC(C)C)nc3)c(-c3ccc(OC(F)(F)F)cc3)o2)ccc1OCC(=O)O | 980 | 1 | 82 | 160 |  |  |  |  |  |  |  | 
Cc1cc(OCc2nc(-c3ccc(N4CCOCC4)nc3)c(-c3ccc(OC(F)(F)F)cc3)o2)ccc1OCC(=O)O | 2490 | 2 | 46 | 1200 | 5 | 18 |  | 700 | 3.8 |  |  | 1.95
COc1ccc(-c2nc(SCCCCOc3ccc(OCC(=O)O)c(C)c3)sc2-c2ccc(OC)cc2)cc1 | 6360 | > 10000 | 89 | 2370 |  |  |  |  |  |  |  | 
Cc1cc(OCc2nc(-c3ccc(-c4ccccc4)cc3)cs2)ccc1OCC(=O)O | > 10000 | 340 | 42 | 480 |  |  |  |  |  |  |  | 
Cc1cc(OCc2nc(-c3ccc(N4CCCCC4)cc3)c(-c3ccc(OC(F)(F)F)cc3)s2)ccc1OCC(=O)O | > 10000 | 52 | 9 | 5200 |  |  |  |  |  |  |  | 
COc1ccc(-c2nc(COc3ccc(OCC(=O)O)c(C)c3)sc2-c2ccc(OC)cc2)cc1 | > 10000 | 100 |  | > 10000 |  |  |  |  |  |  |  | 
